Experimental data taken from paper PMC6407917, “Identification of GSK3186899/DDD853651 as a Preclinical Development Candidate for the Treatment of Visceral Leishmaniasis” (Journal of Medicinal Chemistry, 2018).

What was measured:
Assay in all cases: biochemical
Set-up in all cases: species or system HEK293/K-562/placenta mixed human extract; Kinobeads chemoproteomic competition binding, quantified by TMT LC-MS/MS, dose response up to 20 uM
NTRK1 = NTRK1 (Homo sapiens, UniProt P04629)
MAP3K15 = MAP3K15 (Homo sapiens, UniProt Q6ZN16)
JAK1 = JAK1 (Homo sapiens, UniProt P23458)
CAMK4 = CAMK4 (Homo sapiens, UniProt Q16566)
STK16 = STK16 (Homo sapiens, UniProt O75716)
KIT = KIT (Homo sapiens, UniProt P10721)
ILK = ILK (Homo sapiens, UniProt Q13418)
ARAF = ARAF (Homo sapiens, UniProt P10398)
CDK2 = CDK2 (Homo sapiens, UniProt P24941)
WNK1 = WNK1 (Homo sapiens, UniProt Q9H4A3)
FLT4 = FLT4 (Homo sapiens, UniProt P35916)
TGFBR1 = TGFBR1 (Homo sapiens, UniProt P36897)
CSNK2A1 = CSNK2A1 (Homo sapiens, UniProt P68400)
PIM1 = PIM1 (Homo sapiens, UniProt P11309)
LYN = LYN (Homo sapiens, UniProt P07948)
MAP2K1 = MAP2K1 (Homo sapiens, UniProt Q02750)
CDC42BPB = CDC42BPB (Homo sapiens, UniProt Q9Y5S2)
YWHAG = YWHAG (Homo sapiens, UniProt P61981)
CSNK1G3 = CSNK1G3 (Homo sapiens, UniProt Q9Y6M4)
MAP2K5 = MAP2K5 (Homo sapiens, UniProt Q13163)
AKT1 = AKT1 (Homo sapiens, UniProt P31749)

Sequence of WNK1 (Q9H4A3 whole entry): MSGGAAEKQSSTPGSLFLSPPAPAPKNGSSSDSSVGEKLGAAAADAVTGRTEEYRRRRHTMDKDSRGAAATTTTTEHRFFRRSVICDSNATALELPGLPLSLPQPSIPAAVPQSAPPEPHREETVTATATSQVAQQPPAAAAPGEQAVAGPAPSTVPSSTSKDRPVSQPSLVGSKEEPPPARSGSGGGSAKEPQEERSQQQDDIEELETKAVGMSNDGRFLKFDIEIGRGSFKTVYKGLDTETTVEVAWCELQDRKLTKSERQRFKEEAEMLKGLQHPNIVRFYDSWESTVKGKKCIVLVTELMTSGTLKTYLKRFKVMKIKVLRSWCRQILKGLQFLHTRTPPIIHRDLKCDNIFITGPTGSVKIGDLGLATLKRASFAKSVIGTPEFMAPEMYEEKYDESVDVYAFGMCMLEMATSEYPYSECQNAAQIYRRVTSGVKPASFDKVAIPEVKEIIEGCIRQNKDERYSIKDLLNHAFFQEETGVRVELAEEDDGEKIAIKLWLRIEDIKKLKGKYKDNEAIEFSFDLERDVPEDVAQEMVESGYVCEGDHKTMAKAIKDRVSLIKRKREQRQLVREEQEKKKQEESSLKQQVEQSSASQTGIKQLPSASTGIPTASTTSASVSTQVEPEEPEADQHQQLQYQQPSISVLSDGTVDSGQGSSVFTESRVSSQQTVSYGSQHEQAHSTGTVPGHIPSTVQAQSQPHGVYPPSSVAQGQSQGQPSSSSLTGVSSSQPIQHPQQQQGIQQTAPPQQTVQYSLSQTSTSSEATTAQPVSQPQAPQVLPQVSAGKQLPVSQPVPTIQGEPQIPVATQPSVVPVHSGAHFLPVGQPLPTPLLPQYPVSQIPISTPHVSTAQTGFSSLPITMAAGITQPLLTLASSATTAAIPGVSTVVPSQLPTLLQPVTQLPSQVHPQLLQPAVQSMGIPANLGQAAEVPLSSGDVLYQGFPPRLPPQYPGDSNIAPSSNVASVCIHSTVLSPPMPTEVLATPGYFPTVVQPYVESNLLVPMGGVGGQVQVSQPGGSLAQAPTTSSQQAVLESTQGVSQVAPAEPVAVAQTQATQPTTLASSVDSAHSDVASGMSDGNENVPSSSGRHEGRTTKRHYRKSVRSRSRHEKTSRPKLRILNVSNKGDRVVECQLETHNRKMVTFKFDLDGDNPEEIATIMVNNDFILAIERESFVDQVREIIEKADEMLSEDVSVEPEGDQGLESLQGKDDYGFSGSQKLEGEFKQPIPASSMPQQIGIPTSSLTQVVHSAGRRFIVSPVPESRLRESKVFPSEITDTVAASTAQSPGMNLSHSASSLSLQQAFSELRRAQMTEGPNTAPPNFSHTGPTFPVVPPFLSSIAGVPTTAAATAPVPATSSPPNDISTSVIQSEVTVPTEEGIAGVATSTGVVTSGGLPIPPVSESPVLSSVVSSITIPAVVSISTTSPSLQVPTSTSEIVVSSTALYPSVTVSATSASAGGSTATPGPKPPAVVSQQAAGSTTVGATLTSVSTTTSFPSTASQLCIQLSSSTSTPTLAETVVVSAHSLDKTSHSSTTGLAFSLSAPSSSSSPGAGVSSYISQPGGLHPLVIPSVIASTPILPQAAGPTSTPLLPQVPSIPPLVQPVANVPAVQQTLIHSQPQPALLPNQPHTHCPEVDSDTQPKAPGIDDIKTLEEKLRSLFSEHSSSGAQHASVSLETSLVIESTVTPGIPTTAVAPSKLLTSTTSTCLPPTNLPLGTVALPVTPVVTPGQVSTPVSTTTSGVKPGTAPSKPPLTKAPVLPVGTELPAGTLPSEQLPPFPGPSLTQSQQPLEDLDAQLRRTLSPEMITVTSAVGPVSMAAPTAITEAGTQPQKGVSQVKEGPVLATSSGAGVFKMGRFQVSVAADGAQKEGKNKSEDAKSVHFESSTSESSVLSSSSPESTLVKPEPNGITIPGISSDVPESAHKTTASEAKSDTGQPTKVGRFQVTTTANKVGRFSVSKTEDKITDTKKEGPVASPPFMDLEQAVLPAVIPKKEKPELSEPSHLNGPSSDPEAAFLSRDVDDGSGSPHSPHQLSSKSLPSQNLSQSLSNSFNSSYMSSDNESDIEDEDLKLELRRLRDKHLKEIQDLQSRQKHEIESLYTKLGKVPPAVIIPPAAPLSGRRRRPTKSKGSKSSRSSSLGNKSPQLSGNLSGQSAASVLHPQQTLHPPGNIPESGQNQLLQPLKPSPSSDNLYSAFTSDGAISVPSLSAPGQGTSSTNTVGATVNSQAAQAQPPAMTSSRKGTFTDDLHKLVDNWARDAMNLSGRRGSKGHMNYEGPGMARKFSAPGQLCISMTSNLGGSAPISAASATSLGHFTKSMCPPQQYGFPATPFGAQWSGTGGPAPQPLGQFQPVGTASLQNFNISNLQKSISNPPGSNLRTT
Sequence of CSNK1G3 (Q9Y6M4 whole entry): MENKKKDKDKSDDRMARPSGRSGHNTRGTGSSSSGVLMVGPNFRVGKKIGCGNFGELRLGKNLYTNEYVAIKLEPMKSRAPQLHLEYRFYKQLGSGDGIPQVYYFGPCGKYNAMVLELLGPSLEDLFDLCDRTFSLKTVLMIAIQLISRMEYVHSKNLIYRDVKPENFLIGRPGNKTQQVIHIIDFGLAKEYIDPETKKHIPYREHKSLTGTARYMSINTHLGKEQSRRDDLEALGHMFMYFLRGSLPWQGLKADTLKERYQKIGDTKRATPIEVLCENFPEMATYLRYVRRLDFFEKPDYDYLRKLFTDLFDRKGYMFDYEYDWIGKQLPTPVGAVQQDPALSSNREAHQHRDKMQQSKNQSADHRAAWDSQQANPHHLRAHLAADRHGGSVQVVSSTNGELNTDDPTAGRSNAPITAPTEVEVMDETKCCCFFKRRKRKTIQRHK
Sequence of STK16 (O75716 whole entry): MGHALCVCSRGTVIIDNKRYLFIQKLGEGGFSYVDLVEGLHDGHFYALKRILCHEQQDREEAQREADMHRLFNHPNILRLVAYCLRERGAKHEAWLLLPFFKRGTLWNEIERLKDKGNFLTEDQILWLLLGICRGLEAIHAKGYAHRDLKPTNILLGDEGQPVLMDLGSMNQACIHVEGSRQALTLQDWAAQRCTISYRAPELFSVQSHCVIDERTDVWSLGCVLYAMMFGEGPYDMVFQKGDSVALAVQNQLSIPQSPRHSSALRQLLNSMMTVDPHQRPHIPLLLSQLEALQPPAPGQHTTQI
Sequence of LYN (P07948 whole entry): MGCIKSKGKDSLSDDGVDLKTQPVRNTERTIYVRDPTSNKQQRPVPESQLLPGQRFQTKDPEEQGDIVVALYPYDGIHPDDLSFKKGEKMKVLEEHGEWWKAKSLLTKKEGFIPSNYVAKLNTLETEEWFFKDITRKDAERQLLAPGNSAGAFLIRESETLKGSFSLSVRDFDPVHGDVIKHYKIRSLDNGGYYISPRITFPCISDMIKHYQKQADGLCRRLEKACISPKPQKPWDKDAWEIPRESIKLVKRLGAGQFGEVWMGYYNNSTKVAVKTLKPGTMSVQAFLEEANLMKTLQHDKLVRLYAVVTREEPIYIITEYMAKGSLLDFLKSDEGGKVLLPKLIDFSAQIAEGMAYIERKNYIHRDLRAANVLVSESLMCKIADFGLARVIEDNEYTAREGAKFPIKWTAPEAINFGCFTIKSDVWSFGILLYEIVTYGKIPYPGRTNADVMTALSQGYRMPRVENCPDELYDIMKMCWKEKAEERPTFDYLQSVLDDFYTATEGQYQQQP
Sequence of CAMK4 (Q16566 whole entry): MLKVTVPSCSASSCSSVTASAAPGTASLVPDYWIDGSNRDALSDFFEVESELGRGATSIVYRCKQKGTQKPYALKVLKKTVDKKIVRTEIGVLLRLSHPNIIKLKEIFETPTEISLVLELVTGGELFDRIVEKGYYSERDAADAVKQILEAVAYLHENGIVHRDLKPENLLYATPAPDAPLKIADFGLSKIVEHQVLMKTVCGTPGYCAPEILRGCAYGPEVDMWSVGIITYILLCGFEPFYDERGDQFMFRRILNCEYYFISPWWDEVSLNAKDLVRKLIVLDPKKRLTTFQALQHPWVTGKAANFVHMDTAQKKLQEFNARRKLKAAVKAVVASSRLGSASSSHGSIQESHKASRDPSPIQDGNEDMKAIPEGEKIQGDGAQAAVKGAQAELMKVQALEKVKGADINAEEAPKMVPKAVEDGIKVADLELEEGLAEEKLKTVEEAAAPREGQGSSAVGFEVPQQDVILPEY
Sequence of CSNK2A1 (P68400 whole entry): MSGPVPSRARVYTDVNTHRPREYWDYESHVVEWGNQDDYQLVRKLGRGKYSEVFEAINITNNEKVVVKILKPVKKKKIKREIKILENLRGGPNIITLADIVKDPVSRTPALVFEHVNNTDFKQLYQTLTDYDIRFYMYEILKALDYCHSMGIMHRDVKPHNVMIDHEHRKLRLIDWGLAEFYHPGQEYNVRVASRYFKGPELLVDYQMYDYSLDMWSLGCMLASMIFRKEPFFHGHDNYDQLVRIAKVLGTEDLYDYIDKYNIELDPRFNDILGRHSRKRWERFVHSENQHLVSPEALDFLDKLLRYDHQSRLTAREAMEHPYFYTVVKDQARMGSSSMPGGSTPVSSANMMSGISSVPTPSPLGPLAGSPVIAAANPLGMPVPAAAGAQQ
Sequence of ILK (Q13418 whole entry): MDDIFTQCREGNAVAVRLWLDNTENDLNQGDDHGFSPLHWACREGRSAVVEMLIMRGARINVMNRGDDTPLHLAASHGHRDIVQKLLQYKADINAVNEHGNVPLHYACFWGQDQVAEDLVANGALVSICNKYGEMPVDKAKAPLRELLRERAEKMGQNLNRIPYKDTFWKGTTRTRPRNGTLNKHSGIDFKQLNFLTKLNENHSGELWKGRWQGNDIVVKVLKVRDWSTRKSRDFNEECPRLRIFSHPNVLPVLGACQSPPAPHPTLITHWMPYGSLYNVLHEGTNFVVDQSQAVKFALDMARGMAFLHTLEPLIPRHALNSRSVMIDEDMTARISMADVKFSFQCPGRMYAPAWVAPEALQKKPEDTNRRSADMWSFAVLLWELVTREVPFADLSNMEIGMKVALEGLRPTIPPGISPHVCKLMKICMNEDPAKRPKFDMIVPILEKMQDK

IC50 (NTRK1): ≥ 20 µM
IC50 (MAP3K15): ≥ 20 µM
IC50 (JAK1): ≥ 20 µM
IC50 (CAMK4): ≥ 20 µM
IC50 (STK16): ≥ 20 µM
IC50 (KIT): ≥ 20 µM
IC50 (ILK): ≥ 20 µM
IC50 (ARAF): ≥ 20 µM
IC50 (CDK2): 1.2 µM
IC50 (WNK1): ≥ 20 µM
IC50 (FLT4): ≥ 20 µM
IC50 (TGFBR1): ≥ 20 µM
IC50 (CSNK2A1): ≥ 20 µM
IC50 (PIM1): ≥ 20 µM
IC50 (LYN): ≥ 20 µM
IC50 (MAP2K1): ≥ 20 µM
IC50 (CDC42BPB): ≥ 20 µM
IC50 (YWHAG): ≥ 20 µM
IC50 (CSNK1G3): ≥ 20 µM
IC50 (MAP2K5): ≥ 20 µM
IC50 (AKT1): ≥ 20 µM
Structure (SMILES): COc1ccccc1-c1n[nH]c2nc(N[C@H]3CC[C@H](NS(=O)(=O)CCC(F)(F)F)CC3)nc(OC)c12 [compound 31, 3,3,3-Trifluoro-N-(trans-4-((4-methoxy-3-(2-methoxyphenyl)-1H-pyrazolo[3,4-d]pyrimidin-6-yl)amino)cyclohexyl)propane-1-sulfonamide]
